Each compound was assayed against Nav 1.7 (Homo sapiens (Human), UniProt Q15858) (assay: in-vitro Nav 1.7 PX (IC50)). Settings: not given.
Format: cell-based

Sequence of Nav 1.7 (Q15858 whole entry): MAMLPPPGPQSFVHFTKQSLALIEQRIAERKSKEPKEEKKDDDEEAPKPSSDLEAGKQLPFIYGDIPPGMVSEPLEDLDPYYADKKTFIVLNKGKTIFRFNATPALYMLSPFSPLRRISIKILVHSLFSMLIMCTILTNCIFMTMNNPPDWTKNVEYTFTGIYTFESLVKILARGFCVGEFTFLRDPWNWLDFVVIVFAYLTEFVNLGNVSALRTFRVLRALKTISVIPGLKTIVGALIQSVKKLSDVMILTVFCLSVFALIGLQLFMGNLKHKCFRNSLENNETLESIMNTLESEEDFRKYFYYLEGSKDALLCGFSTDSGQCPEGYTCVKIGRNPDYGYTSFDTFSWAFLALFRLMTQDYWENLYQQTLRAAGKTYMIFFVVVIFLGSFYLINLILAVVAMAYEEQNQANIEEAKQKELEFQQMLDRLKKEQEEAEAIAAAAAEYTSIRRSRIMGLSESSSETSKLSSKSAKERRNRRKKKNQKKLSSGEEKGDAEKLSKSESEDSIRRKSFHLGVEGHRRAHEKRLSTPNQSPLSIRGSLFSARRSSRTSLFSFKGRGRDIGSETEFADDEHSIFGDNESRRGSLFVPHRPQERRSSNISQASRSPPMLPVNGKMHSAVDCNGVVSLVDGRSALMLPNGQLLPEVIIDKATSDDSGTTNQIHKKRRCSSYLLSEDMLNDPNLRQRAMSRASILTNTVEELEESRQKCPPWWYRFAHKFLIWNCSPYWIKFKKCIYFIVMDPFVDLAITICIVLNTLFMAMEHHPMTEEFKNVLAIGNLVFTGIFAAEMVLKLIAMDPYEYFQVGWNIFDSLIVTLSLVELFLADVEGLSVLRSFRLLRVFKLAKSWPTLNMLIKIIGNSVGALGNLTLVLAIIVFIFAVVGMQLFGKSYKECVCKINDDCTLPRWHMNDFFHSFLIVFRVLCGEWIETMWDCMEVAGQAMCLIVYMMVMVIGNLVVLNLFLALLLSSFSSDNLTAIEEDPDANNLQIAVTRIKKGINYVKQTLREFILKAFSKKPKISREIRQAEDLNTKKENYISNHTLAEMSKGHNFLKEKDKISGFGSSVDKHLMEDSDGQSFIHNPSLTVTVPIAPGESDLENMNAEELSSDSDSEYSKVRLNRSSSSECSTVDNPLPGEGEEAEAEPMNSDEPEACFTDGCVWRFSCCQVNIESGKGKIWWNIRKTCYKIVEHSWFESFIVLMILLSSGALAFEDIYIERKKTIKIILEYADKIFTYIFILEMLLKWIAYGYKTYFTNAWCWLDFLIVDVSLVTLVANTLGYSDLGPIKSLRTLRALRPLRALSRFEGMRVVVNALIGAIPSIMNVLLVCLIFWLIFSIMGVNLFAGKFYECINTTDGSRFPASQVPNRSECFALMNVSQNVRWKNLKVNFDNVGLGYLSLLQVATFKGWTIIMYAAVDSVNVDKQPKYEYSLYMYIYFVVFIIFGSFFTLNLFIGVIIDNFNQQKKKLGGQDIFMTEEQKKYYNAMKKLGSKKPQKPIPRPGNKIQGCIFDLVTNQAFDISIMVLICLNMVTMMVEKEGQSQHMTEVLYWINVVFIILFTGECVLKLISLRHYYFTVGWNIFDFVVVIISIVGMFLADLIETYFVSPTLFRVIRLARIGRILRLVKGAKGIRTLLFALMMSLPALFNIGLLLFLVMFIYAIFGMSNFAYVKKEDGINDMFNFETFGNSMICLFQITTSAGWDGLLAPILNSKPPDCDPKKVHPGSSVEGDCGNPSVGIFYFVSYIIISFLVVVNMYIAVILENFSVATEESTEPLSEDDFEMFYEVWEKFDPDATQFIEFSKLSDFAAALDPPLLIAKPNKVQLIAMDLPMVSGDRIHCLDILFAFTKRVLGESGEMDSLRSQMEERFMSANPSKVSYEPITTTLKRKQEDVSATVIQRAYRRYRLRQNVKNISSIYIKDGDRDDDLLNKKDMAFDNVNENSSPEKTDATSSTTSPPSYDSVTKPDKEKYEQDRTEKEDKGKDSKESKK

Which IC50 does the source give for COc1cc(-c2cccc(F)c2)c(Cl)cc1-n1c(=O)ccc2cc(S(=O)(=O)Nc3ccon3)c(F)cc21 (atropisomer, axis not shown; (M)) [Example 357, (M)-1-(2-chloro-3′-fluoro-5-methoxy-[1,1′-biphenyl]-4-yl)-7-fluoro-N-(isoxazol-3-yl)-2-oxo-1,2-dihydroquinoline-6-sulfonamide] here?
The IC50 was 40 nM.

Which IC50 does the source give for COc1cc(-c2cccc(F)c2)c(F)cc1-n1c(=O)cc(C)c2cc(S(=O)(=O)Nc3ccon3)ccc21 (atropisomer, axis not shown; (P)) [Example 572, (P)-1-(2,3′-difluoro-5-methoxy-4-biphenylyl)-N-3-isoxazolyl-4-methyl-2-oxo-1,2-dihydro-6-quinolinesulfonamide] here?
Its IC50 is 485 nM.

Which IC50 does the source give for COc1ccc(-c2cncc(F)c2)cc1-n1c(=O)ccc2cc(S(=O)(=O)Nc3ccon3)ccc21 [Example 485, 1-(5-(5-fluoro-3-pyridinyl)-2-methoxyphenyl)-N-3-isoxazolyl-2-oxo-1,2-dihydro-6-quinolinesulfonamide] here?
Its IC50 is 690 nM.

How did the IC50 turn out when COc1cc(-c2ccc(C)c(Cl)c2)ccc1-n1c(=O)ccc2cc(S(=O)(=O)Nc3ccon3)ccc21 (atropisomer, axis not shown; (M)) [Example 588, (M)-1-(3′-chloro-3-methoxy-4′-methyl-4-biphenylyl)-N-3-isoxazolyl-2-oxo-1,2-dihydro-6-quinolinesulfonamide] was run?
Its IC50 is 1020 nM.

With COc1cc(-c2ccc(Cl)c(C)c2)ccc1-n1c(=O)ccc2cc(S(=O)(=O)Nc3ccon3)ccc21 (atropisomer, axis not shown; (P)) [Example 432, (P)-1-(4′-chloro-3-methoxy-3′-methyl-4-biphenylyl)-N-3-isoxazolyl-2-oxo-1,2-dihydro-6-quinolinesulfonamide] as the compound, how does the IC50 read?
Its IC50 is 9 nM.

Which IC50 does the source give for O=c1ccc2cc(S(=O)(=O)Nc3ccon3)ccc2n1[C@@H]1CC[C@@H](c2cccc(F)c2)C1 [Example 1143, 1-((1R,3R)-3-(3-fluorophenyl)cyclopentyl)-N-3-isoxazolyl-2-oxo-1,2-dihydro-6-quinolinesulfonamide, 1-((1R,3S)-3-(3-fluorophenyl)cyclopentyl)-N-3-isoxazolyl-2-oxo-1,2-dihydro-6-quinolinesulfonamide, 1-((1S,3R)-3-(3-fluorophenyl)cyclopentyl)-N-3-isoxazolyl-2-oxo-1,2-dihydro-6-quinolinesulfonamide, 1-((1S,3S)-3-(3-fluorophenyl)cyclopentyl)-N-3-isoxazolyl-2-oxo-1,2-dihydro-6-quinolinesulfonamide] here?
Its IC50 is 8910 nM.

COc1nc(OCc2ccc(F)c(F)c2)c(Cl)cc1-n1c(=O)ccc2cc(S(=O)(=O)Nc3ccon3)ccc21 [Example 1217, 1-(5-chloro-6-((3,4-difluorobenzyl)oxy)-2-methoxy-3-pyridinyl)-N-3-isoxazolyl-2-oxo-1,2-dihydro-6-quinolinesulfonamide] was tested. Which IC50 did it give?
The IC50 was 96 nM.

Same assay, conditions: in-vitro Nav 1.7 PX data

COc1cc(-c2ccc(F)c(F)c2)c(F)cc1-n1c(=O)ccc2cc(S(=O)(=O)Nc3ncco3)ccc21 [Example 936, N-1,3-oxazol-2-yl-2-oxo-1-(2,3′,4′-trifluoro-5-methoxy-4-biphenylyl)-1,2-dihydro-6-quinolinesulfonamide] was tested. Which IC50 did it give?
Its IC50 is 41 nM.

Which IC50 does the source give for CCOc1cccc(-c2ccc(-n3c(=O)ccc4cc(S(=O)(=O)Nc5ccon5)ccc43)c(OC)c2)c1 [631/779, 1-(3′-ethoxy-3-methoxy-4-biphenylyl)-N-3-isoxazolyl-2-oxo-1,2-dihydro-6-quinolinesulfonamide] here?
Its IC50 is 24 nM.

With COc1cc(-c2ccc(C3CC3)cc2)c(F)cc1-n1c(=O)ccc2cc(S(=O)(=O)Nc3ccon3)ccc21 [Example 757, 1-(4′-cyclopropyl-2-fluoro-5-methoxy-4-biphenylyl)-N-3-isoxazolyl-2-oxo-1,2-dihydro-6-quinolinesulfonamide] as the compound, how does the IC50 read?
Its IC50 is 35 nM.

COc1cc(-c2cc(F)cc(C(F)(F)F)c2)ccc1-n1c(=O)ccc2cc(S(=O)(=O)Nc3ccnc(C)n3)ccc21 [Example 1100, 1-(3′-fluoro-3-methoxy-5′-(trifluoromethyl)-4-biphenylyl)-N-(2-methyl-4-pyrimidinyl)-2-oxo-1,2-dihydro-6-quinolinesiilfonamide] was tested. Which IC50 did it give?
The IC50 was 37 nM.

COc1cc(-c2cccc(OC(C)C)c2)ccc1-n1c(=O)ccc2cc(S(=O)(=O)Nc3ncco3)ccc21 [Example 826, 1-(3-methoxy-3′-(1-methylethoxy)-4-biphenylyl)-N-1,3-oxazol-2-yl-2-oxo-1,2-dihydro-6-quinolinesulfonamide] was tested. Which IC50 did it give?
Its IC50 is 140 nM.

Which IC50 does the source give for COc1cccc(-c2cc(OC)c(-n3c(=O)ccc4cc(S(=O)(=O)Nc5ccon5)ccc43)cc2F)n1 [Example 805, 1-(5-fluoro-2-methoxy-4-(6-methoxy-2-pyridinyl)phenyl)-N-3-isoxazolyl-2-oxo-1,2-dihydro-6-quinolinesulfonamide] here?
Its IC50 is 70 nM.

How did the IC50 turn out when COc1cc(-c2cc(F)cc(Cl)c2)c(F)cc1-n1c(=O)ccc2cc(S(=O)(=O)Nc3ccc(F)cn3)ccc21 [Example 920, 1-(3′-chloro-2,5′-difluoro-5-methoxy-4-biphenylyl)-N-(5-fluoro-2-pyridinyl)-2-oxo-1,2-dihydro-6-quinolinesulfonamide] was run?
Its IC50 is 60 nM.

COc1cc(-c2ccc(F)cc2)c(F)cc1-n1c(=O)ccc2cc(S(=O)(=O)Nc3cc(C)ncn3)ccc21 [Example 772, 1-(2,4′-difluoro-5-methoxy-4-biphenylyl)-N-(6-methyl-4-pyrimidinyl)-2-oxo-1,2-dihydro-6-quinolinesulfonamide] was tested. Which IC50 did it give?
The IC50 was 232 nM.

How did the IC50 turn out when COc1cc(-c2cc(F)cc(Cl)c2)c(F)cc1-n1c(=O)ccc2cc(S(=O)(=O)Nc3cc(C)ncn3)ccc21 [Example 933, 1-(3′-chloro-2,5′-difluoro-5-methoxy-4-biphenylyl)-N-(6-methyl-4-pyrimidinyl)-2-oxo-1,2-dihydro-6-quinolinesulfonamide] was run?
The IC50 was 8 nM.

How did the IC50 turn out when COc1ccc(-c2cc(OC)c(-n3c(=O)ccc4cc(S(=O)(=O)Nc5ccon5)ccc43)cc2F)c(F)c1 [Example 702, 1-(2,2′-difluoro-4′,5-dimethoxy-4-biphenylyl)-N-3-isoxazolyl-2-oxo-1,2-dihydro-6-quinolinesulfonamide] was run?
The IC50 was 22 nM.

Same assay, conditions: in-vitro PatchXpress (PX)

How did the IC50 turn out when COc1cc(-c2cncc(Cl)c2)c(F)cc1-n1c(=O)ccc2cc(S(=O)(=O)Nc3ccon3)ccc21 (atropisomer, axis not shown; (P)) [Example 408, (P)-1-(4-(5-chloro-3-pyridinyl)-5-fluoro-2-methoxyphenyl)-N-3-isoxazolyl-2-oxo-1,2-dihydro-6-quinolinesulfonamide] was run?
Its IC50 is 8040 nM.

COc1nc(-c2cc(F)cc(Cl)c2)c(Cl)cc1-n1c(=O)ccc2cc(S(=O)(=O)Nc3ccon3)ccc21 [Example 449, 1-(5-chloro-6-(3-chloro-5-fluorophenyl)-2-methoxypyridin-3-yl)-N-(isoxazol-3-yl)-2-oxo-1,2-dihydroquinoline-6-sulfonamide] was tested. Which IC50 did it give?
The IC50 was 85 nM.

COc1cc(-c2ccc(Cl)c(C#N)c2)c(F)cc1-n1c(=O)ccc2cc(S(=O)(=O)Nc3ccon3)ccc21 (atropisomer, axis not shown; (P)) [Example 508, (P)-1-(4′-chloro-3′-cyano-2-fluoro-5-methoxy-4-biphenylyl)-N-3-isoxazolyl-2-oxo-1,2-dihydro-6-quinolinesulfonamide] was tested. Which IC50 did it give?
Its IC50 is 7 nM.

— patent US9212182B2, “Bicyclic sulfonamide compounds as sodium channel inhibitors” (AMGEN INC., priority 2013, dated 2015)
